Laboratory results as given in PubChem BioAssay AID2141 (Sanford-Burnham Center for Chemical Genomics, 2009).
The source made the active and inactive calls. The rule behind the calls is not given here.

molecular target: E3 ubiquitin-protein ligase SIAH1 (Homo sapiens) (UniProt Q8IUQ4); experiment: inhibitors of Siah-1 ligand interaction – biochemical, TR-FRET, dose response (AID 2141); settings: TR-FRET biochemical assay, Siah-1 binding

| Compound | IC50 |
| --- | --- |
| CCOc1ccccc1CNc1ccc(O)cc1 | 5.11 µM |
| CN1/C(=C\C=C\C2=[N+](C)c3ccc4ccccc4c3C2(C)C)C(C)(C)c2ccccc21 | > 200 µM (inactive) |
| N#C/C(=C\c1c(F)cccc1Cl)C(=O)NC1CC1 | > 200 µM (inactive) |
| O=C(O)CCCNc1cc(N2CCN(C(=O)c3ccco3)CC2)c2noc3c2c1C(=O)c1ccccc1-3 | 5.41 µM |
| O=C(O)CCCCN1C(=O)/C(=C\c2ccc(OCc3ccccc3)c(OCc3ccccc3)c2)SC1=S | 4.03 µM |
| Nc1c(C(=O)NCc2ccco2)c2nc3ccccc3nc2n1CCc1ccccc1 | 1.77 µM |
| COC(=O)c1ccc2c(c1)C(C)(C)C(/C=C/c1ccccc1O)=[N+]2C | > 200 µM (inactive) |
| Nc1ccc(S(=O)(=O)Nc2ccc(S(N)(=O)=O)cc2)cc1 | > 200 µM (inactive) |
| COCCCNc1c2c3c(cccc3[nH]c1=O)C(=O)c1ccccc1-2 | > 200 µM (inactive) |
| O=C(Nc1ccc(Cl)cc1)c1ccc(S(=O)(=O)N2CCOCC2)cc1 | > 200 µM (inactive) |
| CCN(CC)c1ccc(C=N/C(C#N)=C(\N)C#N)cc1 | > 200 µM (inactive) |
| O=C(Nc1ccc(Br)cc1)c1ccc(N2C(=O)C3CC=CCC3C2=O)cc1 (centres undefined) | 4.27 µM |
| Cc1ccc(C(=O)COc2ccccc2C(=O)Nc2ccccc2)cc1 | > 200 µM (inactive) |
| O=c1ccc2c(-c3ccccc3)c3ccc(O)cc3oc-2c1 | > 200 µM (inactive) |
| C[C@]12CCC3C(CC=C4C[C@@H](O)CC[C@@]43C)C1CCC2[C@]1(C)CCC(=O)O1 (some centres undefined) | > 200 µM (inactive) |
| Cc1ccccc1-c1nc2c3ccccc3nc(=S)n2[nH]1 | > 200 µM (inactive) |
| O=C(N/N=C/c1ccc(OC(=O)c2cccs2)cc1)c1cccc(F)c1 | 1.79 µM |
| Cc1ccc(OCCCN2CCOCC2)cc1 | > 200 µM (inactive) |
| COc1ccc(CNC(=S)Nc2cc(OC)ccc2OC)cc1 | > 200 µM (inactive) |
| COC(=O)C1CC(=O)N(c2ccc(OCc3ccccc3Cl)cc2)C1 (centres undefined) | > 200 µM (inactive) |
| O=C(Nc1nc(-c2cc3ccccc3oc2=O)cs1)c1ccco1 | 2.39 µM |
| CN(C)CCOC(=O)CCc1ccccc1 | > 200 µM (inactive) |
| CCOc1cc(/C=C(\C#N)C(=O)Nc2ccccc2C(=O)O)ccc1OC(=O)c1ccc(C)cc1 | > 200 µM (inactive) |
| CCn1c(O)c(C=Nc2ccc(N3CCOCC3)cc2)c(=O)n(CC)c1=S | > 200 µM (inactive) |
| C=C(C)Cn1c(N2CCN(CC)CC2)nc2c1c(=O)[nH]c(=O)n2C | > 200 µM (inactive) |

| Compound | IC50 |
| --- | --- |
| Cc1ccc2c(c1)N(CC(=O)NCCc1ccc(Cl)cc1)C(=O)c1cccnc1O2 | > 200 µM (inactive) |
| CCCCn1c(NS(=O)(=O)c2ccccc2)c(S(=O)(=O)c2ccc(C)cc2)c2nc3ccccc3nc21 | 1.6 µM |
| CS(=O)(=O)N1CCN(c2ccc([N+](=O)[O-])c(SCc3ccco3)c2)CC1 | > 200 µM (inactive) |
| O=C(Nc1cc([N+](=O)[O-])ccc1N1CCOCC1)c1cccs1 | > 200 µM (inactive) |
| CC[n+]1c(/C=C/N(C)c2ccccc2)sc2ccc(Cl)cc21 | > 200 µM (inactive) |
| Cc1c(Cc2ccccc2)c(=O)oc2c(C)c(OCC(=O)N[C@@H](Cc3ccccc3)C(=O)O)ccc12 | 4.38 µM |
| O=C(O)c1cc(Cl)c(Cl)cc1C(=O)Nc1cccc2cccnc12 | 7.1 µM |
| COc1ccc(CCNC(=O)c2ccc(S(=O)(=O)N(C)c3ccccc3)cc2)cc1OC | > 200 µM (inactive) |
| CCC(C)N1C(=O)/C(=C/c2c(NCCCOC(C)C)nc3c(C)cccn3c2=O)SC1=S (centres undefined) | > 200 µM (inactive) |
| CC(C)(C)c1ccc(C(CC(=O)O)NC(=O)Cc2ccc(F)cc2)cc1 (centres undefined) | 4.55 µM |
| COc1cccc2cc(C(=O)N3CCc4ccccc43)c(=O)oc12 | > 200 µM (inactive) |
| Cc1ccc(S(=O)(=O)N2CCC(=O)N(C(COCc3cccc(C)c3)Cc3ccccc3)CC2)cc1 (centres undefined) | > 200 µM (inactive) |
| CC1CCN(C(=O)C2CCC(C)(C(=O)O)C2(C)C)CC1 (centres undefined) | > 200 µM (inactive) |
| S=c1[nH]nc(Cc2cccc3ccccc23)n1-c1ccccc1 | > 200 µM (inactive) |
| CCCCNc1nnc(Cc2ccc(Cl)cc2)c(=O)[nH]1 | inactive |
| COc1cc(/C=C2/SC(=S)N(Cc3ccccc3)C2=O)cc(Cl)c1O | > 200 µM (inactive) |
| COc1cc(/C=C(\C#N)c2nc3ccccc3[nH]2)ccc1OC(=O)c1ccco1 | 6.22 µM |
| O=C(Cn1cnc2scc(-c3ccccc3)c2c1=O)NCc1ccco1 | 7.29 µM |
| CC12CCC(C(=O)NCc3ccc(Cl)cc3)(OC1=O)C2(C)C (centres undefined) | > 200 µM (inactive) |
| NS(=O)(=O)c1ccc(NC(=O)c2cccc(N3C(=O)c4ccccc4C3=O)c2)cc1 | 10.6 µM |
| O=C(Nc1cccc(Oc2ccc(C(=O)O)c(C(=O)O)c2)c1)c1ccc(-c2ccccc2)cc1 | 11.6 µM |
| Oc1c(Br)cc(Br)cc1CNc1ccc(F)cc1 | inactive |
| O=S(=O)(Nc1cc2nc3ccccc3nc2n1Cc1ccccc1)c1ccc(Cl)cc1 | 6.05 µM |
| COc1ccc(-c2cnnn2-c2ccc(N)cc2)cc1OC | > 200 µM (inactive) |
